Columns and labels:
[1] = target: T1, α1b (hamster receptor expressed in mouse fibroblasts) (Mesocricetus auratus, UniProt P18841); assay: Radioligand binding, [3H]-prazosin, α1b; settings: hamster receptor expressed in mouse fibroblasts, [3H]-prazosin; read-out: Radioligand Binding Ki α1b (Hamster)
T1 construct: expressed in transfected cells; host or cells: mouse fibroblasts
T1 sequence (P18841 1-515): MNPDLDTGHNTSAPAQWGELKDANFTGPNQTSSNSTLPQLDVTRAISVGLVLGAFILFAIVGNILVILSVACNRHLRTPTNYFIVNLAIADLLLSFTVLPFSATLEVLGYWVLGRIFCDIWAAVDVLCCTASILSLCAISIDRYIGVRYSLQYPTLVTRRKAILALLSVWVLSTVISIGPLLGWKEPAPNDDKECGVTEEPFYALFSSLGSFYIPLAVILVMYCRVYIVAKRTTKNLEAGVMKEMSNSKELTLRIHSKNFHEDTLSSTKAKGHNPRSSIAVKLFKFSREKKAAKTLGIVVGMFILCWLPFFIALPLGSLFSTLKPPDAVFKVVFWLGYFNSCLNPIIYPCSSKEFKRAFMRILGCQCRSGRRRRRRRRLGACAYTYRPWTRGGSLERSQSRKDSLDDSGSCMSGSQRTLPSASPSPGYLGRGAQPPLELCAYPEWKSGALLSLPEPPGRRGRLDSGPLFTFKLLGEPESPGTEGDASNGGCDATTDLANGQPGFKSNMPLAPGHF
Summary of the method: (§1)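 [3H]-prazosin radioligand displacement; α1A from rat submaxillary gland tissue, α1b hamster and α1d rat receptors each expressed in mouse fibroblasts.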

[2] = target: T2, α1d (rat receptor expressed in mouse fibroblasts) (Rattus norvegicus, UniProt P23944); assay: Radioligand binding, [3H]-prazosin, α1d; settings: rat receptor expressed in mouse fibroblasts, [3H]-prazosin; read-out: Radioligand Binding Ki α1d (Rat)
T2 construct: expressed in transfected cells; host or cells: mouse fibroblasts
T2 sequence (P23944 1-561): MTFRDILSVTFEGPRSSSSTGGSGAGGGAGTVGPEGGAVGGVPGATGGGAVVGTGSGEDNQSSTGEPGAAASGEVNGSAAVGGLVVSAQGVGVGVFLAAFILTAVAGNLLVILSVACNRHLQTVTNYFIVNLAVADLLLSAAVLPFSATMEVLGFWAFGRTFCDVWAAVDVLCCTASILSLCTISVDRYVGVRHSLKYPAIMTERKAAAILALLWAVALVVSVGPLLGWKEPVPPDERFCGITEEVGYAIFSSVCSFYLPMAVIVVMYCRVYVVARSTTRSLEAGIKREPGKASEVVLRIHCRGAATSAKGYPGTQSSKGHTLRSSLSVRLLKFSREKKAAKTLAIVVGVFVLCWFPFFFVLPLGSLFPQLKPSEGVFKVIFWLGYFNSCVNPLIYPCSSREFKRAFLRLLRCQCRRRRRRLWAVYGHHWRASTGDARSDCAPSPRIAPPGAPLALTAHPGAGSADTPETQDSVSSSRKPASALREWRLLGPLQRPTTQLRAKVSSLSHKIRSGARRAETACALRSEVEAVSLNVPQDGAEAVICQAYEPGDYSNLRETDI
Summary of the method: as §1

[3] = target: T3, α1B (rat spleen) (Rattus norvegicus, UniProt P15823); assay: Agonist tissue response, contraction of rat spleen; type: biochemical; settings: read-out: Agonist Tissue Response (pD2) α1B (rat spleen) (converted)
T3 construct: α1B (rat spleen) and α1D (rat aorta) receptors; from tissue; host or cells: rat spleen
T3 sequence (P15823 1-515): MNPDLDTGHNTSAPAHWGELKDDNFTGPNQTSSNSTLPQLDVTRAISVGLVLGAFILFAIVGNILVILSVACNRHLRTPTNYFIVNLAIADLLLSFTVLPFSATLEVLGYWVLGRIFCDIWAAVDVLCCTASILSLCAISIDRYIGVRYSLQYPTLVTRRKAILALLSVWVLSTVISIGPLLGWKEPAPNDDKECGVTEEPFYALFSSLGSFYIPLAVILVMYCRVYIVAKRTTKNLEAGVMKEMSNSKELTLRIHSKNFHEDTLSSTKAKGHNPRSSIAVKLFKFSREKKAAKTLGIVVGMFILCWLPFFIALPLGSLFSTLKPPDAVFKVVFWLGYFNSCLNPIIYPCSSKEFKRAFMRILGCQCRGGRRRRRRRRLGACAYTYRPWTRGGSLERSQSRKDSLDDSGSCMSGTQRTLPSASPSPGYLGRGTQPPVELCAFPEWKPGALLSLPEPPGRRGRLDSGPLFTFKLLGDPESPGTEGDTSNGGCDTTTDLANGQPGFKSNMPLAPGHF

[4] = tested on: anesthetized dogs; assay: Intraurethral pressure (IUP) in anesthetized dogs; type: in vivo, dog

For `CCS(=O)(=O)Nc1cccc2c1OCCC2c1c[nH]cn1` (single isomer, unassigned; (+)) [Example 95, (+) N-[4-(1H-imidazol-4-yl)-3,4-dihydro-2H-chromen-8-yl]ethanesulfonamide], the Ki [1] was 10 µM, the Ki [2] was 10 µM and the EC50 [3] was 28.2 µM. For the same molecule, the ED (5 mm Hg) ([4]; Canis lupus familiaris, iv dose causing a maximum increase in IUP of 5 mm Hg, anesthetized female Beagle dogs, read-out: Mean IUP ED5) was 0.113 µmol/kg, the “Mean Selectivity Ratio MAP ED20/IUP ED5” value ([4]; anesthetized dogs, iv) was 0.99 and the melting point was 223 to 226 °C.

Reference: patent publication US20030073850A1, “4-Imidazole derivatives of benzyl and restricted benzyl sulfonamides, sulfamides, ureas, carbamates, and amides and their use” (priority 1998, published 2003)
